Measurements published in patent US10292391B2, “Pesticidally active 1,2,4-triazole derivatives with sulphur containing substituents” (Syngenta Participations AG, priority 2015, dated 2019).

Key:
Type in all cases: in vivo
[1] = system: Frankliniella occidentalis (Western Flower Thrips); experiment: Activity against Frankliniella occidentalis, sprayed sunflower leaf discs; conditions: foliar, 168 h, application rate of 200 ppm, population of mixed ages, 7 days after infestation
Description: Sunflower leaf discs were placed on agar in 24-well microtiter plates and sprayed with aqueous test solutions prepared from 10,000 DMSO stock solutions. After drying the leaf discs were infested with a Frankliniella population of mixed ages. The samples were assessed for mortality 7 days after infestation.

[2] = system: Euschistus heros(Neotropical Brown Stink Bug); experiment: Activity against Euschistus heros, sprayed soybean leaf; conditions: 120 h, application rate of 200 ppm, N-2 nymphs, 5 days after infestation, read-out: effect in at least one of the two categories (mortality or growth inhibition)
Description: Soybean leaf on agar in 24-well microtiter plates were sprayed with aqueous test solutions prepared from 10,000 ppm DMSO stock solutions. After drying the leaf were infested with N-2 nymphs. The samples were assessed for mortality and growth inhibition in comparison to untreated samples 5 days after infestation.

[3] = system: Spodoptera littoralis (Egyptian Cotton Leaf Worm); experiment: Activity against Spodoptera littoralis, sprayed cotton leaf discs; conditions: foliar, 72 h, application rate of 200 ppm, L1 larvae, 3 days after infestation, read-out: control (at least one of mortality, anti-feedant effect, and growth inhibition)
Description: Cotton leaf discs were placed on agar in 24-well microtiter plates and sprayed with aqueous test solutions prepared from 10,000 ppm DMSO stock solutions. After drying the leaf discs were infested with five L1 larvae. The samples were assessed for mortality, anti-feedant effect, and growth inhibition in comparison to untreated samples 3 days after infestation. Control of Spodoptera littoralis by a test sample is when at least one of mortality, anti-feedant effect, and growth inhibition is higher than the untreated sample.

[4] = system: Diabrotica Balteata (Corn Root Worm); experiment: Activity against Diabrotica balteata, sprayed maize sprouts; conditions: 96 h, application rate of 200 ppm, L2 larvae, 4 days after infestation, read-out: effect in at least one of the two categories (mortality or growth inhibition)
Description: Maize sprouts, placed on an agar layer in 24-well microtiter plates were treated with aqueous test solutions prepared from 10,000 ppm DMSO stock solutions by spraying. After drying, the plates were infested with L2 larvae (6 to 10 per well). The samples were assessed for mortality and growth inhibition in comparison to untreated samples 4 days after infestation.

[5] = system: Myzus persicae (Green Peach Aphid); experiment: Activity against Myzus persicae, sprayed sunflower leaf discs; conditions: foliar, 144 h, application rate of 200 ppm, aphid population of mixed ages, 6 days after infestation
Description: Sunflower leaf discs were placed on agar in a 24-well microtiter plate and sprayed with aqueous test solutions prepared from 10,000 ppm DMSO stock solutions. After drying, the leaf discs were infested with an aphid population of mixed ages. The samples were assessed for mortality 6 days after infestation.

[6] = system: Plutella xylostella (Diamond Back Moth); experiment: Activity against Plutella xylostella, treated artificial diet; conditions: 120 h, application rate of 200 ppm, L2 larvae, 5 days after infestation, read-out: effect in at least one of the two categories (mortality or growth inhibition)
Description: 24-well microtiter plates with artificial diet were treated with aqueous test solutions prepared from 10,000 ppm DMSO stock solutions by pipetting. After drying, the plates were infested with L2 larvae (10 to 15 per well). The samples were assessed for mortality and growth inhibition in comparison to untreated samples 5 days after infestation.

[7] = system: Spodoptera littoralis (Egyptian Cotton Leaf Worm); experiment: Activity against Spodoptera littoralis, systemic via lettuce grown on treated agar; conditions: 144 h, test rate of 12.5 ppm, root uptake by lettuce, 6 days after infestation, read-out: effect in at least one of the three categories (mortality, anti-feedancy, or growth inhibition)
Source text: Test compounds were applied by pipette from 10,000 ppm DMSO stock solutions into 24-well plates and mixed with agar. Lettuce seeds were placed on the agar and the multi well plate was closed by another plate which contains also agar. After 7 days the roots have absorbed the compound and the lettuce has grown into the lid plate. The lettuce leafs were now cut off into the lid plate. Spodoptera eggs were pipetted through a plastic stencil on a humid gel blotting paper and the plate closed with it. The samples were assessed for mortality, anti-feedant effect and growth inhibition in comparison to untreated samples 6 days after infestation.

[8] = system: Myzus persicae (Green Peach Aphid); experiment: Activity against Myzus persicae, systemic via roots of pea seedlings; conditions: 144 h, test rate of 24 ppm, roots of pea seedlings in test solution, 6 days
Description: Roots of pea seedlings infested with an aphid population of mixed ages were placed directly in the aqueous test solutions prepared from 10,000 DMSO stock solutions. The samples were assessed for mortality 6 days after placing seedlings in test solutions.

CCSc1cc(-n2cccn2)cnc1-c1nnc(-c2cc(C(F)(F)F)ccn2)n1C [Compound P3, 3-ethylsulfanyl-2-[4-methyl-5-[4-(trifluoromethyl)-2-pyridyl]-1,2,4-triazol-3-yl]-5-pyrazol-1-yl-pyridine]
≥ 80%: mortality at 200 ppm [1] | percent effect (mortality or growth inhibition) at 200 ppm [2]

CCSc1cc(-c2ccc(Cl)cc2)cnc1-c1nnc(-c2cc(C(F)(F)F)ccn2)n1C [Compound P1, 5-(4-chlorophenyl)-3-ethylsulfanyl-2-[4-methyl-5-[4-(trifluoromethyl)-2-pyridyl]-1,2,4-triazol-3-yl]pyridine]
≥ 80%: mortality at 200 ppm [3] | percent effect (mortality or growth inhibition) at 200 ppm [4]

CCS(=O)(=O)c1cc(SC(F)(F)F)cnc1-c1nnc(-c2cc(C(F)(F)F)ccn2)n1C [Compound P34, 3-ethylsulfonyl-2-[4-methyl-5-[4-(trifluoromethyl)-2-pyridyl]-1,2,4-triazol-3-yl]-5-(trifluoromethylsulfanyl)pyridine]
≥ 80%: percent effect (mortality or growth inhibition) at 200 ppm [4] | mortality at 200 ppm [5]

CCS(=O)(=O)c1cc(-c2cccc(F)c2)cnc1-c1nnc(-c2cc(C(F)(F)F)ccn2)n1C [Compound P53]
≥ 80%: mortality at 200 ppm [3] | percent effect (mortality or growth inhibition) at 200 ppm [6] | percent effect (mortality or growth inhibition) at 200 ppm [4]

CCS(=O)(=O)c1cc(-c2cccc(Cl)n2)cnc1-c1nnc(-c2cc(C(F)(F)F)ccn2)n1C [Compound P24, 5-(6-chloro-2-pyridyl)-3-ethylsulfonyl-2-[4-methyl-5-[4-(trifluoromethyl)-2-pyridyl]-1,2,4-triazol-3-yl]pyridine]
≥ 80%: mortality at 200 ppm [3] | percent effect (mortality or growth inhibition) at 200 ppm [6] | percent effect (mortality or growth inhibition) at 200 ppm [4] | percent effect (mortality or growth inhibition) at 200 ppm [2]

CCS(=O)(=O)c1cc(-c2ccc(C(F)(F)F)cc2)cnc1-c1nnc(-c2cc(C(F)(F)F)ccn2)n1C [Compound P11]
≥ 80%: mortality at 200 ppm [3] | percent effect (mortality or growth inhibition) at 200 ppm [6] | percent effect (mortality or growth inhibition) at 200 ppm [4] | mortality at 200 ppm [5] | percent effect (mortality or growth inhibition) at 200 ppm [2]

CCS(=O)(=O)c1cc(-c2ncc(Cl)cn2)cnc1-c1nnc(-c2cc(C(F)(F)F)ccn2)n1C [Compound P18]
≥ 80%: mortality at 200 ppm [3] | percent effect (mortality or growth inhibition) at 200 ppm [4]

CCSc1cc(-c2ncccn2)cnc1-c1nnc(-c2cc(C(F)(F)F)ccn2)n1C [Compound P8]
≥ 80%: percent effect (mortality or growth inhibition) at 200 ppm [6] | percent effect (mortality or growth inhibition) at 200 ppm [4] | mortality at 200 ppm [1]

CCS(=O)(=O)c1cc(-n2ccc(Cl)n2)cnc1-c1nnc(-c2cc(C(F)(F)F)ccn2)n1C [Compound P28]
≥ 80%: mortality at 200 ppm [3] | percent control (mortality, anti-feedancy or growth inhibition) at 12.5 ppm [7] | percent effect (mortality or growth inhibition) at 200 ppm [6] | percent effect (mortality or growth inhibition) at 200 ppm [4] | mortality at 200 ppm [5] | mortality at 200 ppm [1] | percent effect (mortality or growth inhibition) at 200 ppm [2]

CCS(=O)(=O)c1cc(S(=O)(=O)C(F)(F)F)cnc1-c1nnc(-c2cc(C(F)(F)F)ccn2)n1C [Compound P35, 3-ethylsulfonyl-2-[4-methyl-5-[4-(trifluoromethyl)-2-pyridyl]-1,2,4-triazol-3-yl]-5-(trifluoromethylsulfonyl)pyridine]
≥ 80%: mortality at 200 ppm [3] | percent effect (mortality or growth inhibition) at 200 ppm [6] | percent effect (mortality or growth inhibition) at 200 ppm [4]

CCS(=O)(=O)c1cc(-c2cccc(F)c2)cnc1-c1nnc(-c2cc(C(F)(F)F)ncn2)n1C [Compound P52]
≥ 80%: mortality at 200 ppm [3] | percent control (mortality, anti-feedancy or growth inhibition) at 12.5 ppm [7] | percent effect (mortality or growth inhibition) at 200 ppm [6] | percent effect (mortality or growth inhibition) at 200 ppm [4] | mortality at 200 ppm [5] | mortality at 200 ppm [1] | percent effect (mortality or growth inhibition) at 200 ppm [2]

C=Cc1cnc(-c2nnc(-c3cc(C(F)(F)F)ccn3)n2C)c(S(=O)(=O)CC)c1 [Compound P12, 3-ethylsulfonyl-2-[4-methyl-5-[4-(trifluoromethyl)-2-pyridyl]-1,2,4-triazol-3-yl]-5-vinyl-pyridine]
≥ 80%: mortality at 200 ppm [5] | mortality at 24 ppm [8]

CCSc1cc(-n2cc(C(F)(F)F)cn2)cnc1-c1nnc(-c2cc(C(F)(F)F)ccn2)n1C [Compound P5]
≥ 80%: percent effect (mortality or growth inhibition) at 200 ppm [4]

CCS(=O)(=O)c1cc(-n2cccn2)cnc1-c1nnc(-c2cc(C(F)(F)F)ccn2)n1C [Compound P4, 3-ethylsulfonyl-2-[4-methyl-5-[4-(trifluoromethyl)-2-pyridyl]-1,2,4-triazol-3-yl]-5-pyrazol-1-yl-pyridine]
≥ 80%: mortality at 200 ppm [3] | mortality at 200 ppm [5] | percent effect (mortality or growth inhibition) at 200 ppm [2]

CCS(=O)(=O)c1cc(-c2ccc(Cl)cc2)cnc1-c1nnc(-c2cc(C(F)(F)F)ccn2)n1C [Compound P2, 5-(4-chlorophenyl)-3-ethylsulfonyl-2-[4-methyl-5-[4-(trifluoromethyl)-2-pyridyl]-1,2,4-triazol-3-yl]pyridine]
≥ 80%: mortality at 200 ppm [3] | percent effect (mortality or growth inhibition) at 200 ppm [4]

CCS(=O)(=O)c1cc([S+]([O-])C(F)(F)F)cnc1-c1nnc(-c2cc(C(F)(F)F)ccn2)n1C (stereo not drawn) [Compound P36, 3-ethylsulfonyl-2-[4-methyl-5-[4-(trifluoromethyl)-2-pyridyl]-1,2,4-triazol-3-yl]-5-(trifluoromethylsulfinyl)pyridine]
≥ 80%: percent effect (mortality or growth inhibition) at 200 ppm [4] | mortality at 24 ppm [8]

CCS(=O)(=O)c1cc(-c2cccc(C#N)n2)cnc1-c1nnc(-c2cc(C(F)(F)F)ccn2)n1C [Compound P21]
≥ 80%: mortality at 200 ppm [3] | percent control (mortality, anti-feedancy or growth inhibition) at 12.5 ppm [7] | percent effect (mortality or growth inhibition) at 200 ppm [6] | percent effect (mortality or growth inhibition) at 200 ppm [4] | mortality at 200 ppm [5] | mortality at 200 ppm [1] | percent effect (mortality or growth inhibition) at 200 ppm [2]

CCS(=O)(=O)c1ccc(C2CC2)nc1-c1nnc(-c2cc(C(F)(F)F)ccn2)n1C [Compound P38]
≥ 80%: mortality at 200 ppm [3] | percent effect (mortality or growth inhibition) at 200 ppm [6] | percent effect (mortality or growth inhibition) at 200 ppm [4]

CCS(=O)(=O)c1ccc(-c2cccc(F)c2)nc1-c1nnc(-c2cc(C(F)(F)F)ccn2)n1C [Compound P50, 3-ethylsulfonyl-6-(3-fluorophenyl)-2-[4-methyl-5-[4-(trifluoromethyl)-2-pyridyl]-1,2,4-triazol-3-yl]pyridine]
≥ 80%: mortality at 200 ppm [3] | percent control (mortality, anti-feedancy or growth inhibition) at 12.5 ppm [7] | percent effect (mortality or growth inhibition) at 200 ppm [6] | percent effect (mortality or growth inhibition) at 200 ppm [4] | mortality at 200 ppm [5] | mortality at 200 ppm [1] | percent effect (mortality or growth inhibition) at 200 ppm [2]

CCS(=O)(=O)c1cc(-n2ccc(C#N)n2)cnc1-c1nnc(-c2cc(C(F)(F)F)ccn2)n1C [Compound P16]
≥ 80%: mortality at 200 ppm [3] | percent control (mortality, anti-feedancy or growth inhibition) at 12.5 ppm [7] | percent effect (mortality or growth inhibition) at 200 ppm [6] | percent effect (mortality or growth inhibition) at 200 ppm [4] | mortality at 200 ppm [5]

CCS(=O)(=O)c1cc(-c2ncc(C#N)cn2)cnc1-c1nnc(-c2cc(C(F)(F)F)ccn2)n1C [Compound P20]
≥ 80%: mortality at 200 ppm [3] | percent control (mortality, anti-feedancy or growth inhibition) at 12.5 ppm [7] | percent effect (mortality or growth inhibition) at 200 ppm [6] | percent effect (mortality or growth inhibition) at 200 ppm [4] | mortality at 200 ppm [5] | percent effect (mortality or growth inhibition) at 200 ppm [2]
